Source: patent publication US8691993B2, “Piperidinyl naphthylacetic acids” (Hoffman-La Roche Inc., priority 2011, dated 2014)

Target: human CRTH2 receptor (Homo sapiens (Human), UniProt Q9Y5Y4)
Assay: Calcium Flux Assay Using Fluorometric Imaging Plate Reader (FLIPR)
Format: cell-based
Conditions: CHO-K1 cells transfected with G-alpha 16 and human CRTH2 receptor; DK-PGD2 ligand; 1 hour compound incubation
Protocol: Calcium Flux Assay Using Fluorometric Imaging Plate Reader (FLIPR)
CHO-K1 cells previously transfected with G-alpha 16 were subsequently transfected with the human CRTH2 receptor and the neomycin resistance gene. Following selection in 800 μg/mL G418 (geneticin), individual clones were assayed for their receptor expression based on staining with an anti human CRTH2 IgG, followed by assaying for their response to 13,14-dihydro-15-keto Prostaglandin D2 (DK-PDG2) (ligand) in the Ca^2+ Flux assay. Positive clones were then cloned by limiting dilution cloning. The transfected cells were cultured in Ham's F-12 medium supplemented with 10% fetal bovine serum, 2 mM glutamine, 100 U/mL penicillin/100 μg/mL streptomycin, 200 μg/mL hygromycin B, and 800 μg/mL G418 (geneticin). Cells were harvested with trypsin-EDTA (trypsin-ethylenediaminetetraacetic acid) and counted using ViaCount® reagent (from Guava Technologies, Inc. which contains two DNA-binding dyes that enable the reagent user to distinguish between viable and non-viable cells). The cell suspension volume was adjusted to 2.5×10^5 cells/mL with complete growth media. Aliquots of 50 μL were dispensed into BD Falcon™ 384 well black/clear microplates (from BD Biosciences, a division of Becton, Dickinson and Company) and the microplates were placed in a 37° C. CO2 incubator overnight. The following day, the microplates were used in the assay.
Loading Buffer containing dye (from the FLIPR® Calcium 3 Assay Kit from Molecular Devices, a division of MDS Analytical Technologies and MDS Inc.) was prepared by dissolving the contents of one bottle into 200 mL Hank's Balanced Salt Solution containing 20 mM HEPES (4-(2-hydroxyethyl)-1-piperazineethanesulfonic acid) and 2.5 mM probenecid. Growth media was removed from the cell plates and 25 μL of Hank's Balanced Salt Solution (HBSS) containing 20 mM HEPES, 0.05% BSA and 2.5 mM probenecid was added to each well followed by 25 μL of diluted dye using a Multidrop dispenser. The plates were then incubated for 1 hour at 37° C.
During the incubation, test compound plates were prepared by adding 90 μL of HBSS/20 mM HEPES/0.005% BSA buffer to the 2 μL of serial diluted compounds. To prepare serial diluted compounds, 20 mM stocks of compounds were dissolved in 100% DMSO. The compound dilution plate was set up as follows: well #1 received 5 μL of compound plus 10 μL of DMSO. Wells 2-10 received 10 μL of DMSO. 5 μL was mixed and transferred from well #1 into well #2. 1:3 serial dilutions were continued out 10 steps. 2 μL of diluted compound was transferred into duplicate wells of a 384 well “assay plate” and then 90 μL of buffer was added.
After incubation, both the cell and “assay plate” plates were brought to the fluorometric imaging plate reader (FLIPR®) and 20 μL of the diluted compounds were transferred to the cell plates by the FLIPR®. Plates were then incubated for 1 hour at room temperature. After the 1 hour incubation, plates were returned to the FLIPR® and 20 μL of 4.5× concentrated ligand was added to the cell plates. During the assay, fluorescence readings were taken simultaneously from all 384 wells of the cell plate every 1.5 seconds. Five readings were taken to establish a stable baseline, then 20 μL of sample was rapidly (30 μL/sec) and simultaneously added to each well of the cell plate. The fluorescence was continuously monitored before, during and after sample addition for a total elapsed time of 100 seconds. Responses (increase in peak fluorescence) in each well following agonist addition were determined. The initial fluorescence reading from each well, prior to ligand stimulation, was used as a zero baseline value for the data from that well. The responses were expressed as % inhibition of the buffer control. […]

Sequence of human CRTH2 receptor (Q9Y5Y4 whole entry): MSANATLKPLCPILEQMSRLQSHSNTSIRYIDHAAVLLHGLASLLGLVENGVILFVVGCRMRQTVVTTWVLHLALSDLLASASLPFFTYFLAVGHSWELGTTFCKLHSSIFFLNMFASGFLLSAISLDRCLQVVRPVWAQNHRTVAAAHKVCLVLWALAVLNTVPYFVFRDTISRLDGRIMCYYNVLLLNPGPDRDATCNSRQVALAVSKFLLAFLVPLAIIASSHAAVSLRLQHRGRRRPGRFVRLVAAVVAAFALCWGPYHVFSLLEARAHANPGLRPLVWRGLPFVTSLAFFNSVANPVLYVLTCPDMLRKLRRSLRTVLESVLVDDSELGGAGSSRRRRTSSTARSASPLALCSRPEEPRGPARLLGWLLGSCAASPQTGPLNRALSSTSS

SMILES | IC50 [nM]
O=C(O)Cc1cc(C2CCN(S(=O)(=O)c3ccccc3)CC2)c2cc(F)ccc2c1 [Example 1, [4-(1-Benzenesulfonyl-piperidin-4-yl)-6-fluoro-naphthalen-2-yl]-acetic acid] | 18
Cc1ccc(S(=O)(=O)N2CCC(c3cc(CC(=O)O)cc4ccc(F)cc34)CC2)cc1 [Example 2, {6-Fluoro-4-[1-(toluene-4-sulfonyl)-piperidin-4-yl]-naphthalen-2-yl}-acetic acid] | 53
O=C(O)Cc1cc(C2CCN(S(=O)(=O)c3ccccn3)CC2)c2cc(F)ccc2c1 [Example 3, {6-Fluoro-4-[1-(pyridine-2-sulfonyl)-piperidin-4-yl]-naphthalen-2-yl}-acetic acid] | 104
O=C(O)Cc1cc(C2CCN(S(=O)(=O)c3cccnc3)CC2)c2cc(F)ccc2c1 [Example 4, {6-Fluoro-4-[1-(pyridine-3-sulfonyl)-piperidin-4-yl]-naphthalen-2-yl}-acetic acid] | 1740
O=C(O)Cc1cc(C2CCN(S(=O)(=O)c3ccncc3)CC2)c2cc(F)ccc2c1 [Example 5, {6-Fluoro-4-[1-(pyridine-4-sulfonyl)-piperidin-4-yl]-naphthalen-2-yl}-acetic acid] | 898
O=C(O)Cc1cc(C2CCN(S(=O)(=O)c3ccccc3Cl)CC2)c2cc(F)ccc2c1 [Example 6, {4-[1-(2-Chloro-benzenesulfonyl)-piperidin-4-yl]-6-fluoro-naphthalen-2-yl}-acetic acid] | 2.5
O=C(O)Cc1cc(C2CCN(S(=O)(=O)c3cccc(Cl)c3)CC2)c2cc(F)ccc2c1 [Example 7, {4-[1-(3-Chloro-benzenesulfonyl)-piperidin-4-yl]-6-fluoro-naphthalen-2-yl}-acetic acid] | 95
O=C(O)Cc1cc(C2CCN(S(=O)(=O)c3ccc(Cl)cc3)CC2)c2cc(F)ccc2c1 [Example 8, {4-[1-(4-Chloro-benzenesulfonyl)-piperidin-4-yl]-6-fluoro-naphthalen-2-yl}-acetic acid] | 42
CS(=O)(=O)c1cccc(S(=O)(=O)N2CCC(c3cc(CC(=O)O)cc4ccc(F)cc34)CC2)c1 [Example 9, {6-Fluoro-4-[1-(3-methanesulfonyl-benzenesulfonyl)-piperidin-4-yl]-naphthalen-2-yl}-acetic acid] | 1150
O=C(O)Cc1cc(C2CCN(S(=O)(=O)c3cc(Cl)ccc3Cl)CC2)c2cc(F)ccc2c1 [Example 10, {4-[1-(2,5-Dichloro-benzenesulfonyl)-piperidin-4-yl]-6-fluoro-naphthalen-2-yl}-acetic acid] | 3.5
O=C(O)Cc1cc(C2CCN(S(=O)(=O)c3ccc(Cl)cc3Cl)CC2)c2cc(F)ccc2c1 [Example 11, {4-[1-(2,4-Dichloro-benzenesulfonyl)-piperidin-4-yl]-6-fluoro-naphthalen-2-yl}-acetic acid] | 4.8
O=C(O)Cc1cc(C2CCN(S(=O)(=O)c3cc(Cl)cc(Cl)c3)CC2)c2cc(F)ccc2c1 [Example 12, {4-[1-(3,5-Dichloro-benzenesulfonyl)-piperidin-4-yl]-6-fluoro-naphthalen-2-yl}-acetic acid] | 404
O=C(O)Cc1cc(C2CCN(S(=O)(=O)c3cc(C(F)(F)F)cc(C(F)(F)F)c3)CC2)c2cc(F)ccc2c1 [Example 13, {4-[1-(3,5-Bis-trifluoromethyl-benzenesulfonyl)-piperidin-4-yl]-6-fluoro-naphthalen-2-yl}-acetic acid] | 1350
